# Legend:
# S100A9 [1] = target: T1, S100A9 (Homo sapiens, UniProt P06702); assay: Binding constant to coated S100A9 by fluorimetric measurement (one site saturation model); settings: human S100A9 homodimer coated, 1 h at 4° C.
# T1 sequence (P06702 1-114): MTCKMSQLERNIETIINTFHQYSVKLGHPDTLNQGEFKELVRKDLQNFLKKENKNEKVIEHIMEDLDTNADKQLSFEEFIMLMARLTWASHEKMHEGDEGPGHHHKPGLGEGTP
# Description: (§1) FIG. 15: Binding of Cy5.5-CES271 to human and murine S100A9. Estimation of the binding constant of Cy5.5-CES271 to human (A) and murine (B) S100A9. The constant was calculated using the one site saturation regression model. Each dot represents the mean value of four independent experiments.
# (§2) The binding constant of Cy5.5-CES271 to murine and human S100A9 was determined by fluorimetric measurements. 0.3788 μM S100A9 (5 μg ml^−1 of homodimer S100A9) solved in 50 μl PBS was coated to the bottom of a 96-well plate and served as capturing molecule. For each S100A9 coated well a control well was used with 50 μl PBS alone. After a washing step, unspecific binding sites were blocked by PBS/5% skim milk powder. Cy5.5-CES271 was added at increasing concentrations. After 1 h incubation at 4° C., the supernatants were removed and the fluorescence intensity was measured with a fluorimeter. Non-linear regression analysis was performed with a one site saturation model, to calculate the binding constant of Cy5.5-CES271 to either murine or human S100A9. […] A strong binding affinity of the tracer to S100A9 could be observed that is not affected by the attachment of Cy5.5 to CES271.
# murine S100A9 = target: T2, murine S100A9 (Mus musculus, UniProt P31725); assay: as above; settings: murine S100A9 homodimer coated, 1 h at 4° C.
# T2 sequence (P31725 1-113): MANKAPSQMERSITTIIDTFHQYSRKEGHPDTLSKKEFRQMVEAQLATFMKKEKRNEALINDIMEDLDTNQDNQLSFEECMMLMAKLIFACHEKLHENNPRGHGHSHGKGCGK
# Description: as §1, §2
# S100A9 [2] = target: T3, S100A9 (Mus musculus, UniProt P31725); assay: Myocardial infarction mouse model, FRI of the explanted heart; assay type: in vivo, C57BI/6 mouse; settings: one day post LAD occlusion, two hours after i.v. injection of 2 nmol
# T3 construct: from tissue; host or cells: living mice (inflamed ear, joints) and explanted mouse heart, aorta and lungs
# T3 sequence (P31725 2-113 limits assumed): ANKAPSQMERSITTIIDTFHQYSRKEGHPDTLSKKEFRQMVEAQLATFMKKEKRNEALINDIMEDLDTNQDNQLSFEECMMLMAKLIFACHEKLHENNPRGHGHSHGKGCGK
# Description: FIG. 7: Accumulation of Cy5.5-CES271 in a mouse model of myocardial infarction. One day post occlusion of the LAD in a C57BI/6 mouse: FRI of the explanted heart (longitudinal mid-infarction cut) two hours after i.v. injection of 2 nmol Cy5.5-CES271. […] Furthermore, absence of S100A9 in the remote myocardium (RM) is accompanied by the lack of Cy5.5-CES271.
# Myocardial infarction was induced by opening the chest of a mouse and transient ligation of the left coronary artery for 60 minutes. The ischemic event triggers acute inflammatory response to the tissue injury in the first hours/days followed by a remodeling process (involving less intense inflammatory processes) after about one week. FRI was performed one day after the surgical intervention to assess the intense acute inflammatory response and the images in FIG. 7 were acquired two hours after injection of 2 nmol Cy5.5-CES-271. […] FRI of the explanted heart (longitudinal mid-infarction cut) two hours after i.v. injection of 2 nmol Cy5.5-CES271 is shown.
# S100A9 [3] = target: T3, S100A9; assay: Atherosclerosis mouse model (HypoE, HFC diet), FRI of the explanted aorta; assay type: in vivo, SR-BI−/−/apoER61h/h mice (HypoE); settings: 10 days HFC diet, 2 h p.i.
# Description: FIG. 8: Accumulation of Cy5.5-CES271 in a mouse model of atherosclerosis in a HypoE mouse, 10 days on HFC diet.
# Atherosclerosis is an inflammatory disease of the vessel wall. SR-BI^−/−/apoE^R61 h/h-mice (HypoE) are known to develop atherosclerotic lesions especially when set on a high fat and high choleresterol diet (HFC). Typical predeliction site is the aortic arch. 12-14 week old mice were set on HFC diet for 10 days. At day 10 of HFC diet Cy5.5-CES271 was injected i.v., the mice were sacrificed two hours p.i., the aortic arches were explanted, and measured ex-vivo by FRI.
# The hearts and aorta were fixed overnight in 4% paraformaldehyde and embedded in paraffin. Sections measuring 4 μm in thickness were analyzed. For immunohistochemistry, paraffin skin sections (4 μm) were dewaxed, blocked with 10% fetal bovine serum, and incubated with rabbit anti-S100A9 or MAC-3 antibodies for 1 h at room temperature followed by a goat-anti-rabbit biotinylated antibody and 3,3′ diaminobenzidine (DAB).
substance,measurement,setting,value
"3-ethyl-2((1E,3E,5E)-5-(3-(1-(5-ethyl-4-hydroxy-1-methyl-2-oxo-1,2-dihydroquinolin-3-yl)-1,15-dioxo-2-phenyl-5,8,11-trioxa-2,14-diazanonadecan-19-yl)-1,1-dimethyl-6,8-disulfonato-1H-benzo[e]indol-2(3H)-ylidene)penta-1,3-dien-1-yl)-1,1-dimethyl-1H-benzo[e]indol-3-ium-6,8-disulfonate [Cy5.5-CES271]",Kd,S100A9 [1],2060 nM
same,Kd,murine S100A9,2660 nM
same,Accumulation in the myocardial infarction (MI),S100A9 [2],accumulates in the myocardial infarction
same,Accumulation in the remote myocardium (RM),S100A9 [2],lack of Cy5.5-CES271 accumulation
same,Accumulation in plaque lesions of the explanted aorta,S100A9 [3],accumulation
